Columns and labels:
ATF4 = ATF4 inhibition assay under Aβ stimulation (SH-SY5Y cells with 7PA2 CHO conditioned media); assay type: cell-based, human; settings: 16 hours, 1 nM to 10 μM compound (FIG. 7)
Description: Chinese hamster ovary (CHO) cells that stably express human APP751 incorporating the familial Alzheimer's disease mutation V717F were used as a source of […] monomer and low-n oligomers. These cells, referred to as 7PA2 CHO cells, were cultured in 100 mm dishes with Dulbecco's modified Eagle's medium (DMEM) containing 10% fetal bovine serum, 2 mM L-glutamine, 100 U/ml penicillin, and 100 μg/ml […], streptomycin and […] G418. Upon reaching 90-100% confluency, cells were washed with 5 mL of glutamine- and serum-free DMEM and incubated for approximately 16 h in 5 mL of the same DMEM. Conditioned media (CM) was collected.
SH-SY5Y cells were maintained at 37° C. and 5% CO2 in RPMI 1640 media supplemented with 10% fetal bovine serum (FBS), penicillin and streptomycin. After reaching 80% of confluence, cells were detached and seeded on 6 well plates in complete media, allowed to recover 48 h and treated for 16 hours with CM from WT CHO cells (wtCM) or 7PA2 CHO cells (7PA2CM) in the presences of various concentrations ranging from 1 nM to 10 μM of compound 58.
After 16 hours treatment, culture media were removed and cells were lysed with SDS-PAGE lysis buffer. Lysates were transferred to 1.5 ml tubes and sonicated for 3 min. Total protein amount was quantified using BCA Protein Assay Kit (Pierce). Equal amount of proteins (30 μg) were loaded on SDS-PAGE gels. […]

CHO cells = experiment: Protein production by transient gene expression (GFP in CHO cells); assay type: cell-based, Chinese hamster; settings: pIRES2-AcGFP1, 1 μM or 5 μM, 24 hours (FIGS. 12A, 12B)
Description: CHO cells were maintained at 37° C. and 5% CO2 in DMEM supplemented with 10% fetal bovine serum (FBS), 2 mM L-glutamine, 100 U/ml penicillin, and 100 μg/ml streptomycin. After reaching 80% of confluence, cells were detached and seeded on 6-well plates in complete media and allowed to recover for 48 h. Cells were then washed three times with PBS and transfected with 1 μg of plasmid pIRES2-AcGFP1 (Clonetech 632435) using Lipofectamine LTX (Thermofisher Scientific) according to manufacturer instructions. Transfection media was supplemented with culture medium alone (vehicle) or 1 μM or 5 μM compound 58 in culture medium.
After 24 hours treatment, culture media were removed and cells were lysed with SDS-PAGE lysis buffer. Lysates were transferred to 1.5 ml tubes and sonicated for 3 min. Total protein amount was quantified using BCA Protein Assay Kit (Pierce). Equal amount of proteins (30 μg) was loaded on SDS-PAGE gels. […]
GFP (cell Signaling) and β-actin (Sigma-Aldrich) antibodies were used as primary antibodies. […] Quantification of protein bands was done by densitometry using ImageJ software.
The levels were normalized to β-actin expression and percentage was calculated as the percent relative to the expression of GFP in untreated condition (Veh) which corresponds to 100%.

MEF cells = experiment: Frontotemporal dementia cellular model (progranulin knockdown in MEF cells); assay type: cell-based; settings: PGRN siRNA mix, 1 μM or 5 μM, 48 hours (FIG. 13)
Description: MEF cells were maintained at 37° C. and 5% CO2 in DMEM supplemented with 10% fetal bovine serum (FBS), 2 mM L-glutamine, 100 U/ml penicillin, and 100 μg/ml streptomycin. After reaching 80% of confluence, cells were detached and seeded on 6-well plates in complete media at a density of 3×10^5 cells/well and allowed to recover for 48 h. To perform a knockdown expression of the progranulin protein, cells were then washed three times with PBS and treated with small interference RNA (siRNA) mix, that target progranulin (PGRN) gene (Qiagen FlexiTube siRNA mix, Cat No 1027416), according to manufacturer instructions.
Transfection media with siRNA mix was supplemented with OPTIMEM medium alone (GRN7) or 1 μM or 5 μM compound 58 in OPTIMEM medium. Transfection media without siRNA mix (Veh) and cells cultured in OPTIMEM medium alone (Unt) were used as controls.
After 48 hours treatment, culture media were removed and cells were lysed with SDS-PAGE lysis buffer. Lysates were transferred to 1.5 ml tubes and sonicated for 3 min. Total protein amount was quantified using BCA Protein Assay Kit (Pierce). Equal amount of proteins (30 μg) was loaded on SDS-PAGE gels. […]
PGRN (R&D Systems) and β-actin (Sigma-Aldrich) antibodies were used as primary antibodies. […] Quantification of protein bands was done by densitometry using ImageJ software. […]

Structure (SMILES): O=C(NN1CCN(C[C@@H](O)COc2ccc(Cl)c(F)c2)CC1)c1ccc2cc(Cl)ccc2n1 [Compound 58, (R)-6-chloro-N-(4-(3-(4-chloro-3-fluorophenoxy)-2-hydroxypropyl)piperazin-1-yl)quinoline-2-carboxamide]
- ATF4 expression in the presence of Aβ oligomers (immunoblot) (ATF4): inhibits the expression of ATF4 in the presence of Aβ oligomers treatment in a dose dependent manner
- expression of GFP after transient transfection (CHO cells): increased expression of GFP
- expression of PGRN (progranulin) in siRNA knockdown condition (MEF cells): increased expression of progranulin
